Assay results taken from patent publication US12240862B2, “Inhibitors of peptidylarginine deiminases” (Gilead Sciences, Inc., priority 2020, dated 2025).

Each compound was assayed against T1, human PAD4 (Homo sapiens, UniProt Q9UM07) (assay: In vitro PAD4 BAEE biochemical assay). Conditions: human PAD4, BAEE substrate; 5 nM PAD4, 2 mM calcium chloride, 3 mM BAEE; geometric mean of multiple experiments.
T1 construct: human PAD4 (NM_012387), A2P663, was PCR amplified; His-SUMO (N, cleaved yes); made in house; host or cells: E. coli BL21(DE3)
Method in brief: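 Ammonia generated from BAEE serves as the readout, measured by o-phthalaldehyde after EDTA termination. Final conditions: 5 nM human PAD4 (SUMO tag cleaved), 2 mM CaCl2, 3 mM BAEE, pH 7.6 MOPS buffer, 25 °C for 2 h following a 30-min compound preincubation.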

T1 sequence (Q9UM07 2-663): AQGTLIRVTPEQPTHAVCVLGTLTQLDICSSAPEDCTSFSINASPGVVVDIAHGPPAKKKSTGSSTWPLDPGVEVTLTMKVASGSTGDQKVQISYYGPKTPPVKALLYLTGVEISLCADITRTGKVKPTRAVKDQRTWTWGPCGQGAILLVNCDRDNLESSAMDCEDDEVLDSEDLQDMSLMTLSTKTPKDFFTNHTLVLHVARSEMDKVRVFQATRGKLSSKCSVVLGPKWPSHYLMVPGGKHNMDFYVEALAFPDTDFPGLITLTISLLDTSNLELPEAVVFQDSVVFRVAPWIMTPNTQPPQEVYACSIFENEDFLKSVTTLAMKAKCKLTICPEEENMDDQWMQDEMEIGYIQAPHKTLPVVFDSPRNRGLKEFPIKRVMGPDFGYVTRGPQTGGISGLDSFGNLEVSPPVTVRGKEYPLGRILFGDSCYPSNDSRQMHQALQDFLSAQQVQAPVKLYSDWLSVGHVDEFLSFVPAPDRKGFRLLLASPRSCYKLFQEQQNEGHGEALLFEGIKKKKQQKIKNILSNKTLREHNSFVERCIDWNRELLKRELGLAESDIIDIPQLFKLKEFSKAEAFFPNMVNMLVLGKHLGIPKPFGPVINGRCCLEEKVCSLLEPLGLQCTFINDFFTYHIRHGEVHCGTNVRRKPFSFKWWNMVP

Compound	IC50 [nM]
COc1cc(C(=O)N2[C@H]3CC[C@@H]2[C@H](N)C3)cc2nc(-c3cc4ccc([C@@H](C)NC(=O)c5ccccn5)nc4n3CC3CC3)c(C)n12 [Example 175, ~{N}-[(1~{R})-1-[2-[7-[(1~{R},2~{R},4~{S})-2-amino-7-azabicyclo[2.2.1]heptane-7-carbonyl]-5-methoxy-3-methylimidazo [1,2-a]pyridin-2-yl]-1-(cyclopropylmethyl)pyrrolo [2,3-b]pyridin-6-yl]ethyl]pyridine-2-carboxamide]	181
CCCC(CC(=O)N1CCCC1)c1ccc2cc(-c3nc4cc(C(=O)N5[C@H]6CC[C@@H]5[C@H](N)C6)cc(OC)n4c3C)n(CC3CC3)c2n1 (some centres unmarked) [Example 541, 3-[2-[7-[(1~{R},2~{R}, 4~{S})-2-amino-7-azabicyclo[2.2.1]heptane-7-carbonyl]-5-methoxy-3-methylimidazo[1,2-a]pyridin-2-yl]-1-(cyclopropylmethyl)pyrrolo [2,3-b]pyridin-6-yl]-1-pyrrolidin-1-ylhexan-1-one]	270
COc1cc(C(=O)N2C[C@H](N)[C@@H](F)C2)cc2nc(-c3cc4ccc(N(C(F)F)S(C)(=O)=O)nc4n3CC3CC3)c(C)n12 [Example 290, ~{N}-[2-[7-[(3~{S}, 4~{S})-3-amino-4-fluoropyrrolidine-1-carbonyl]-5-methoxy-3-methylimidazo [1,2-a]pyridin-2-yl]-1-(cyclopropylmethyl)pyrrolo [2,3-b]pyridin-6-yl]-~{N}-(difluoromethyl) methanesulfonamide]	9870
COc1cc(C(=O)N2[C@H]3CC[C@@H]2[C@H](N)C3)cc2nc(-c3cc4ccc([C@@H](C)NC(=O)C5C(C)(C)C5(F)F)nc4n3CC3CC3)c(C)n12 (some centres unmarked) [Example 103, ~{N}-[(1~{R})-1-[2-[7-[(1~{R},2~{R},4~{S})-2-amino-7-azabicyclo[2.2.1]heptane-7-carbonyl]-5-methoxy-3-methylimidazo [1,2-a]pyridin-2-yl]-1-(cyclopropylmethyl)pyrrolo [2,3-b]pyridin-6-yl]ethyl]-2,2-difluoro-3,3-dimethylcyclopropane-1-carboxamide]	66.6
COc1cc(C(=O)N2[C@H]3CC[C@@H]2[C@H](N)C3)cc2nc(-c3cc4ccc(N(C(F)F)S(C)(=O)=O)nc4n3CC3CC3)c(C)n12 [Example 389, N-(2-(7-((1R,2R,4S)-2-amino-7-azabicyclo[2.2.1]heptane-7-carbonyl)-5-methoxy-3-methylimidazo[1,2-a]pyridin-2-yl)-1-(cyclopropylmethyl)-1H-pyrrolo[2,3-b]pyridin-6-yl)-N-(difluoromethyl)methanesulfonamide]	84.8
CCC1CC2CN(C(=O)c3cc(OC)n4c(C)c(-c5cc6ccc(N(C(F)F)S(C)(=O)=O)nc6n5CC5CC5)nc4c3)C1C2N (centres unmarked) [Example 370]	17100
COc1cc(C(=O)N2CC[C@@H](O)[C@@H](N)C2)cc2nc(-c3cc4ccc([C@@H](C)NC(=O)c5ccccc5)nc4n3CC3CC3)c(C)n12 [Example 115]	177
COc1cc(C(=O)N2[C@H]3CC[C@@H]2[C@H](N)C3)cc2nc(-c3cc4ccc([C@@H](C)NC(=O)N5CCCC5)nc4n3CC3CC3)c(C)n12 [Example 251, N—((R)-1-(2-(7-((1R,2R,4S)-2-amino-7-azabicyclo[2.2.1]heptane-7-carbonyl)-5-methoxy-3-methylimidazo[1,2-a]pyridin-2-yl)-1-(cyclopropylmethyl)-1H-pyrrolo[2,3-b]pyridin-6-yl)ethyl)pyrrolidine-1-carboxamide]	50.2
CC[C@@](C)(O)c1ccc2cc(-c3nc4cc(C(=O)N5[C@H]6CC[C@@H]5[C@H](N)C6)cc(OC)n4c3C)n(CC3CC3)c2n1 [Example 566, [(1~{R},2~{R},4~{S})-2-amino-7-azabicyclo [2.2.1]heptan-7-yl]-[2-[1-(cyclopropylmethyl)-6-[(2~{R})-2-hydroxybutan-2-yl]pyrrolo[2,3-b]pyridin-2-yl]-5-methoxy-3-methylimidazo [1,2-a]pyridin-7-yl]methanone]	123
COc1cc(C(=O)N2CCC[C@@H](N)C2)cc2nc(-c3cc4ccc([C@@H](C)NC(=O)C(C)(C)O)nc4n3CC3CC3)c(C)n12 [Example 127, ~{N}-[(1~{R})-1-[2-[7-[(3~{R})-3-aminopiperidine-1-carbonyl]-5-methoxy-3-methylimidazo [1,2-a]pyridin-2-yl]-1-(cyclopropylmethyl)pyrrolo [2,3-b]pyridin-6-yl]ethyl]-2-hydroxy-2-methylpropanamide]	76.2
COc1cc(C(=O)N2CC[C@H]3CCCN[C@H]3C2)cc2nc(-c3cc4ccc(N(C(F)F)S(C)(=O)=O)nc4n3CC3CC3)c(C3CC3)n12 [Example 310, ~{N}-[2-[7-[(4~{a}~{R},8~{a}~{R})-2,3,4,4~{a},5,6,8,8~{a}-octahydro-1~{H}-1,7-naphthyridine-7-carbonyl]-3-cyclopropyl-5-methoxyimidazo [1,2-a]pyridin-2-yl]-1-(cyclopropylmethyl)pyrrolo [2,3-b]pyridin-6-yl]-~{N}-(difluoromethyl) methanesulfonamide]	886
COc1cc(C(=O)N2[C@H]3CC[C@@H]2[C@H](N)C3)cc2nc(-c3cc4ccc([C@@H](C)NC(=O)C5(COC(F)(F)F)CC5)nc4n3CC3CC3)c(C)n12 [Example 138, ~{N}-[(1~{R})-1-[2-[7-[(1~{R},2~{R},4~{S})-2-amino-7-azabicyclo[2.2.1]heptane-7-carbonyl]-5-methoxy-3-methylimidazo [1,2-a]pyridin-2-yl]-1-(cyclopropylmethyl)pyrrolo [2,3-b]pyridin-6-yl]ethyl]-1-(trifluoromethoxymethyl) cyclopropane-1-carboxamide]	328
COc1cc(C(=O)N2[C@@H]3CC[C@@H](N)[C@H]2CC3)cc2nc(-c3cc4ccc(N(C(F)F)S(C)(=O)=O)nc4n3CC3CC3)c(C3CC3)n12 [Example 382, ~{N}-[2-[7-[(1~{R},2~{R}, 5~{R})-2-amino-8-azabicyclo[3.2.1]octane-8-carbonyl]-3-cyclopropyl-5-methoxyimidazo[1,2-a]pyridin-2-yl]-1-(cyclopropylmethyl)pyrrolo [2,3-b]pyridin-6-yl]-~{N}-(difluoromethyl) methanesulfonamide]	204
COc1cc(C(=O)N2[C@H]3CC[C@@H]2[C@H](N)C3)cc2nc(-c3cc4ccc([C@@H](C)NC(=O)[C@H]5C[C@@](C)(O)C5)nc4n3CC3CC3)c(C)n12 [Example 54, ~{N}-[(1~{R})-1-[2-[7-[(1~{R},2~{R}, 4~{S})-2-amino-7-azabicyclo[2.2.1]heptane-7-carbonyl]-5-methoxy-3-methylimidazo[1,2-a]pyridin-2-yl]-1-(cyclopropylmethyl)pyrrolo[2,3-b]pyridin-6-yl]ethyl]-3-hydroxy-3-methylcyclobutane-1-carboxamide]	28.7
COc1cc(C(=O)N2CCC[C@@H](N)C2)cc2nc(-c3cc4ccc([C@@H](C)NC(=O)N5CCCC5)nc4n3CC3CC3)c(C)n12 [Example 252, ~{N}-[(1~{R})-1-[2-[7-[(3~{R})-3-aminopiperidine-1-carbonyl]-5-methoxy-3-methylimidazo [1,2-a]pyridin-2-yl]-1-(cyclopropylmethyl)pyrrolo [2,3-b]pyridin-6-yl]ethyl] pyrrolidine-1-carboxamide]	98.1
COc1cc(C(=O)N2CC[C@H]3OCCN[C@H]3C2)cc2nc(-c3cc4ccc(N(C(F)F)S(C)(=O)=O)nc4n3CC3CC3)c(C3CC3)n12 [Example 384, ~{N}-[2-[7-[(4~{a}~{S},8~{a}~{R})-2,3,4,4~{a},5,7,8,8~{a}-octahydropyrido[4,3-b][1,4]oxazine-6-carbonyl]-3-cyclopropyl-5-methoxyimidazo[1,2-a]pyridin-2-yl]-1-(cyclopropylmethyl)pyrrolo [2,3-b]pyridin-6-yl]-~{N}-(difluoromethyl) methanesulfonamide]	888
COC(=O)C12CC(C(=O)N[C@H](C)c3ccc4cc(-c5nc6cc(C(=O)N7[C@H]8CC[C@@H]7[C@H](N)C8)cc(OC)n6c5C)n(CC5CC5)c4n3)(C1)C2 [Example 159, methyl 3-[[(1~{R})-1-[2-[7-[(1~{R},2~{R},4~{S})-2-amino-7-azabicyclo[2.2.1]heptane-7-carbonyl]-5-methoxy-3-methylimidazo [1,2-a]pyridin-2-yl]-1-(cyclopropylmethyl)pyrrolo [2,3-b]pyridin-6-yl]ethyl]carbamoyl]bicyclo[1.1.1] pentane-1-carboxylate]	58.3
COc1cc(C(=O)N2[C@H]3CC[C@@H]2[C@H](N)C3)cc2nc(-c3cc4ccc(C(C)n5cncn5)nc4n3CC3CC3)c(C)n12 (some centres unmarked) [Example 546, [(1~{R},2~{R},4~{S})-2-amino-7-azabicyclo [2.2.1]heptan-7-yl]-[2-[1-(cyclopropylmethyl)-6-[1-(1,2,4-triazol-1-yl)ethyl]pyrrolo[2,3-b]pyridin-2-yl]-5-methoxy-3-methylimidazo[1,2-a]pyridin-7-yl]methanone]	156
COc1cc(C(=O)N2[C@H]3CC[C@@H]2[C@H](N)C3)cc2nc(-c3cc4ccc([C@@H](C)NC(=O)C5(OC)CCC5)nc4n3CC3CC3)c(C)n12 [Example 41, ~{N}-[(1~{R})-1-[2-[7-[(1~{R},2~{R},4~{S})-2-amino-7-azabicyclo [2.2.1]heptane-7-carbonyl]-5-methoxy-3-methylimidazo [1,2-a]pyridin-2-yl]-1-(cyclopropylmethyl)pyrrolo[2,3-b]pyridin-6-yl]ethyl]-1-methoxycyclobutane-1-carboxamide]	27
COc1cc(C(=O)N2CCC[C@@H](N)C2)cc2nc(-c3cc4ccc([C@@H](C)N(C)C(=O)c5ccccc5)nc4n3CC3CC3)c(C)n12 [Example 186, ~{N}-[(1~{R})-1-[2-[7-[(3~{R})-3-aminopiperidine-1-carbonyl]-5-methoxy-3-methylimidazo [1,2-a]pyridin-2-yl]-1-(cyclopropylmethyl)pyrrolo [2,3-b]pyridin-6-yl]ethyl]-~{N}-methylbenzamide]	274
